Measurements reported in patent EP0532097A1, “Piperazinyl(sulfon)amide derivatives of camphor as oxytocin antagonists” (MERCK & CO. INC., priority 1991, dated 1993).

These molecules were tested against T1, uterine OT receptors (Rattus norvegicus, UniProt P70536) (assay: [³H]Oxytocin radioligand binding assay, crude membrane preparation of uteri from DES-treated rats). Conditions: at 100 nM.
T1 construct: using a crude membrane preparation of uteri; from tissue; host or cells: uterus of DES-treated rats, crude membrane preparation
T1 sequence (P70536 1-388): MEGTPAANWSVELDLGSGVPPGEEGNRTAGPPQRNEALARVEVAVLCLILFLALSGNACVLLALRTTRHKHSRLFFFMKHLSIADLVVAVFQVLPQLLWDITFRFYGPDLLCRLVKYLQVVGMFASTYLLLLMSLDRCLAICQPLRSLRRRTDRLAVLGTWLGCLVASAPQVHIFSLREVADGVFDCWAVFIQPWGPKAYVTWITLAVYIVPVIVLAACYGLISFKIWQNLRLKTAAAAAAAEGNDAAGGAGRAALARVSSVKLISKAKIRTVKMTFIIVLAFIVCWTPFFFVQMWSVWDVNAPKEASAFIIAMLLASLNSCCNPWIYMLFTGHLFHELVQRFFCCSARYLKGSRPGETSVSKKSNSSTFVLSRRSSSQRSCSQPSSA
Method: The high affinity binding of [³H] Oxytocin (OT)([tyrosyl, 3,5-[³H]OT; 30-60 Ci/mmol; New England Nuclear. Boston, MA) to uterine OT receptors was based on an assay (Fuchs, A-R; Fuchs, F; Soloff, MS. 1985 J. Clin. Endocrinol. Metab. 60:37) using a crude membrane preparation of uteri taken from diethylstilbestrol dipropionate (DES)-treated (0.3 mg/kg, ip; 18-24) rats. Competition studies were conducted at equilibrium (60 minutes; 22°C) using 1 nM[³H]OT in the following assay buffer: 50 mM Tris-HCl, 5 mM MgCl₂, and 0.1% BSA, pH 7.4. Nonspecific binding (10% of the total binding) was determined using 1 mM unlabeled OT and the binding reaction was terminated by filtration through glass fiber filters using a cell harvester (model 7019, Skatron, Inc., Sterling, VA). IC₅₀ (the concentration of tested compound that inhibits 50% of OT) was reported, unless otherwise noted.
With “1-((7,7-Dimethyl-2-exo-hydroxy-2-endo-2-(1-(4-pyridinyl)methylamino)-propyl-bicyclo(2.2.1)heptan-1-yl)methanesulfonyl)-4-(2-methylphenyl)-piperazine [Example 27]” the “inhibition at 100 nM” value was 37% inhibition at 100 nM.

Same assay, conditions: at 1,000 nM; 1 µM
For “1-((7,7-Dimethyl-2-(3-acetamido-3-carboxy)propylidine-bicyclo(2.2.1)-heptan-1-yl)methanesulfonyl)-4-(2-methylphenyl)piperazine [Example 29]”, the “inhibition at 1,000 nM” value was 78% inhibition at 1,000 nM.

Same assay, conditions: read-out: inhibition at 100 nM
`COC(=O)CCNCC(C)C1(O)CC2CCC1(CS(=O)(=O)N1CCN(c3ccccc3C)CC1)C2(C)C` (stereo not drawn) [Example 10, 1-((7,7-Dimethyl-2-exo-hydroxy-2-endo-2-(1-(2-methoxycarbonylethyl)-amino)propyl-bicyclo(2.2.1)heptan-1-yl)methanesulfonyl)-4-(2-methylphenyl)piperazine] was tested, and the inhibition at 0.1 µM was 48%. `C=CC1(O)CC2CCC1(CS(=O)(=O)N1CCN(c3ccccc3C)CC1)C2(C)C` (stereo not drawn) [Example 12, 1-((7,7-dimethyl-2-exo-hydroxy-2-endo-ethenyl-bicyclo(2.2.1)heptan-1-yl)methanesulfonyl)-4-(2-methylphenyl)piperazine] gave an inhibition at 0.1 µM of 23%. `Cc1ccccc1N1CCN(S(=O)(=O)CC23CCC(CC2=CCNC(=O)Cc2cnc[nH]2)C3(C)C)CC1` (stereo not drawn) [Example 17, 1-((7,7-dimethyl-2-(2-(4(5)-imidazolylacetyl)amino)-ethylidine-bicyclo(2.2.1)heptan-1-yl)methane-sulfonyl)-4-(2-methylphenyl)piperazine] gave an inhibition at 0.1 µM of 36%.

Same assay, conditions: read-out: inhibition at 1,000 nM
`Cc1ccccc1N1CCN(S(=O)(=O)CC23CCC(CC2=CCN=[N+]=[N-])C3(C)C)CC1` (stereo not drawn) [Example 15, 1-((7,7-dimethyl-2-(2-azido)ethylidine-bicyclo-(2.2.1)heptan-1-yl)methanesulfonyl)-4-(2-methyl-phenyl)piperazine] showed an inhibition at 1 µM of 44%. `Cc1ccccc1N1CCN(S(=O)(=O)CC23CCC(CC2=CCN)C3(C)C)CC1` (stereo not drawn) [Example 16, 1-((7,7-dimethyl-2-(2-amino)ethylidine-bicyclo-(2.2.1)heptan-1-yl)methanesulfonyl)-4-(2-methyl-phenyl)piperazine] was tested, and the inhibition at 1 µM was 64%. `Cc1ccccc1N1CCN(S(=O)(=O)CC23CCC(CC24CO4)C3(C)C)CC1` (stereo not drawn) [Example 18, 1-((7,7-Dimethyl-2-spiro-epoxy-bicyclo(2.2.1)heptan-1-yl)methane-sulfonyl)-4-(2-methylphenyl)piperazine] gave an inhibition at 1 µM of 75%. `Cc1ccccc1N1CCN(S(=O)(=O)C[C@]23CC[C@H](C[C@]2(O)CNCC(C)C)C3(C)C)CC1` [Example 19, 1-((7,7-Dimethyl-2-exo-hydroxy-2-endo-isobutylamino-methyl-bicyclo(2.2.1)heptan-1-yl)methanesulfonyl)-4-(2-methylphenyl)piperazine] gave an inhibition at 1 µM of 31%. Work on `COC(=O)C1=CC2CCC1(CS(=O)(=O)N1CCN(c3ccccc3C)CC1)C2(C)C` (stereo not drawn) [Example 20, 1-((7,7-Dimethyl-2-methoxycarbonyl-bicyclo(2.2.1)hept-2-en-1-yl)methanesulfonyl)-4-(2-methylphenyl)-piperazine] yielded an inhibition at 1 µM of 72%. With `Cc1ccccc1N1CCN(S(=O)(=O)CC23CCC(C=C2C(=O)O)C3(C)C)CC1` (stereo not drawn) [Example 21, 1-((7,7-Dimethyl-2-carboxy-bicyclo(2.2.1)hept-2-en-1-yl)methanesulfonyl)-4-(2-methylphenyl)piperazine] the inhibition at 1 µM was 38%. `Cc1ccccc1N1CCN(S(=O)(=O)CC23CCC(C=C2C(=O)NCCc2cnc[nH]2)C3(C)C)CC1` (stereo not drawn) [Example 22, 1-((7,7-Dimethyl-2-(4-imidazolyl)ethylaminocarbonyl-bicyclo(2.2.1)hept-2-en-1-yl)methanesulfonyl)-4-(2-methylphenyl)piperazine] showed an inhibition at 1 µM of 78%.
